Experimental data: ChEMBL document CHEMBL1201862, “PubChem BioAssay data set” (2004)
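Step 1: Grow cells in 96-well plates. Step 2: Expose to compound for 48 hours at 5 concentrations. Step 3: Interpolate endpoints linearly; if unreached, use highest concentration. The concentration for 50% growth inhibition is given as GI50.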 Activity calls are given as the source filed them. Cut-off read from the data, not from the text of the source: active = GI50 up to about 1.1 µM and inactive = higher.

What was measured:
Experiment in all cases: inhibition of tumour cell growth, NCI panel, 48 h
[1] = system: HCT-116
[2] = system: NCI/ADR-RES
[3] = system: HT-29
[4] = system: MDA-MB-231
[5] = system: HCC 2998
[6] = system: SN12C
[7] = system: HOP-62
[8] = system: KM12
[9] = system: UO-31
[10] = system: SW-620
[11] = system: COLO 205
[12] = system: OVCAR-4
[13] = system: HL-60
[14] = system: SK-OV-3
[15] = system: RXF 393
[16] = system: SK-MEL-5
[17] = system: 786-0
[18] = system: Hs-578T
[19] = system: IGROV-1
[20] = system: UACC-62
[21] = system: NCI-H23
[22] = system: SF-268
[23] = system: SF-539
[24] = system: SF-295
[25] = system: MDA-N
[26] = system: MCF7
[27] = system: NCI-H460
[28] = system: UACC-257
[29] = system: CAKI-1
[30] = system: OVCAR-8
[31] = system: RPMI-8226
[32] = system: EKVX
[33] = system: HCT-15
[34] = system: OVCAR-3
[35] = system: HOP-92
[36] = system: MOLT-4
[37] = system: CCRF-CEM
[38] = system: SR
[39] = system: MDA-MB-435
[40] = system: M14
[41] = system: OVCAR-5
[42] = system: NCI-H226
[43] = system: A498
[44] = system: U-251
[45] = system: TK-10
[46] = system: SNB-75
[47] = system: ACHN
[48] = system: DU-145
[49] = system: T47D
[50] = system: NCI-H522
[51] = system: A549
[52] = system: PC-3
[53] = system: LOX IMVI
[54] = system: K562
[55] = system: SK-MEL-28
[56] = system: SNB-19
[57] = system: Malme-3M
[58] = system: SK-MEL-2

Measured: GI50

c1ccc(-c2cc(-c3cccs3)c(-c3cccs3)s2)cc1
inactive: [1] 19.6 µM | [2] 41.4 µM | [3] 55.7 µM | [4] 29.9 µM | [5] 25 µM | [6] 85.9 µM | [7] > 100 µM | [8] 14.9 µM | [9] 26.2 µM | [10] 33.7 µM | [11] 47.3 µM | [12] 14.3 µM | [13] 25.5 µM | [14] > 100 µM | [15] 16.6 µM | [16] 33.7 µM | [17] 50 µM | [18] 70 µM | [19] > 100 µM | [20] > 100 µM | [21] 19.1 µM | [22] > 100 µM | [23] > 100 µM | [24] 80 µM | [25] 14.6 µM | [26] 16.6 µM | [27] 56.8 µM | [28] 56.8 µM | [29] 26.4 µM | [30] > 100 µM | [31] 31.8 µM | [32] 81.8 µM | [34] 56.2 µM | [35] > 100 µM | [36] 21.2 µM | [37] 23.7 µM | [38] 18.9 µM | [39] 27.1 µM | [40] 18.9 µM | [41] > 100 µM | [42] > 100 µM | [43] 80.2 µM | [44] 78.7 µM | [45] 32.2 µM | [46] 20 µM | [47] 70.5 µM | [48] 64 µM | [49] 4.5 µM | [50] 26.5 µM
22.8 µM: [33]

CCOC(O)C(F)(F)F (stereo not given)
inactive: [1] > 100 µM | [2] > 100 µM | [3] > 100 µM | [4] > 100 µM | [5] > 100 µM | [6] > 100 µM | [8] > 100 µM | [51] > 100 µM | [9] > 100 µM | [10] > 100 µM | [11] > 100 µM | [13] > 100 µM | [14] > 100 µM | [15] > 100 µM | [16] > 100 µM | [18] > 100 µM | [52] > 100 µM | [21] > 100 µM | [53] > 100 µM | [22] > 100 µM | [24] > 100 µM | [54] > 100 µM | [25] > 100 µM | [26] > 100 µM | [27] > 100 µM | [28] > 100 µM | [30] > 100 µM | [55] > 100 µM | [34] > 100 µM | [35] > 100 µM | [36] > 100 µM | [37] > 100 µM | [38] > 100 µM | [39] > 100 µM | [40] > 100 µM | [42] > 100 µM | [56] > 100 µM | [44] > 100 µM | [45] > 100 µM | [46] > 100 µM | [47] > 100 µM | [48] > 100 µM | [49] > 100 µM
> 100 µM: [33]

O=C1c2cc3c(cc2CC12Cc1ccc4c(c1C2=O)CCC4)CCCC3 (stereo not given)
inactive: [1] > 100 µM | [2] > 100 µM | [3] > 100 µM | [4] > 100 µM | [5] > 100 µM | [7] > 100 µM | [51] > 100 µM | [9] > 100 µM | [10] > 100 µM | [12] > 100 µM | [13] > 100 µM | [14] > 100 µM | [15] > 100 µM | [16] > 100 µM | [17] > 100 µM | [18] > 100 µM | [19] > 100 µM | [52] > 100 µM | [21] > 100 µM | [53] > 100 µM | [22] > 100 µM | [23] > 100 µM | [24] > 100 µM | [54] > 100 µM | [25] > 100 µM | [26] > 100 µM | [27] > 100 µM | [57] 60 µM | [28] > 100 µM | [29] > 100 µM | [30] > 100 µM | [58] > 100 µM | [31] > 100 µM | [32] > 100 µM | [55] > 100 µM | [34] > 100 µM | [35] > 100 µM | [36] > 100 µM | [37] > 100 µM | [38] 60 µM | [39] 76.4 µM | [40] > 100 µM | [41] > 100 µM | [56] > 100 µM | [43] > 100 µM | [44] > 100 µM | [45] > 100 µM | [46] 5.7 µM | [47] > 100 µM | [48] > 100 µM | [49] > 100 µM | [50] > 100 µM
> 100 µM: [33]

O=C(O)CCC1C(=O)C2CCN1CC2 (stereo not given)
> 100 µM: [33]
inactive: [1] > 100 µM | [2] > 100 µM | [3] > 100 µM | [4] > 100 µM | [5] > 100 µM | [6] > 100 µM | [7] > 100 µM | [8] > 100 µM | [51] > 100 µM | [9] > 100 µM | [10] > 100 µM | [11] > 100 µM | [12] > 100 µM | [13] > 100 µM | [14] > 100 µM | [15] > 100 µM | [16] > 100 µM | [17] > 100 µM | [18] > 100 µM | [19] > 100 µM | [20] > 100 µM | [52] > 100 µM | [21] > 100 µM | [53] > 100 µM | [22] > 100 µM | [23] > 100 µM | [24] > 100 µM | [54] > 100 µM | [25] > 100 µM | [26] > 100 µM | [27] > 100 µM | [57] > 100 µM | [28] > 100 µM | [29] > 100 µM | [30] > 100 µM | [58] > 100 µM | [31] > 100 µM | [32] > 100 µM | [55] > 100 µM | [34] > 100 µM | [36] > 100 µM | [37] > 100 µM | [38] > 100 µM | [39] > 100 µM | [40] > 100 µM | [41] > 100 µM | [42] > 100 µM | [56] > 100 µM | [43] 97.7 µM | [44] > 100 µM | [45] > 100 µM | [46] > 100 µM | [47] > 100 µM | [48] > 100 µM | [49] > 100 µM | [50] > 100 µM

COc1ccc(C(=O)/C=C/c2ccc(OCCCOc3ccc(/C=C/C(=O)c4ccc(OC)cc4)cc3)cc2)cc1
> 100 µM: [33]
inactive: [1] 24.7 µM | [2] > 100 µM | [3] 56.1 µM | [4] > 100 µM | [5] > 100 µM | [6] > 100 µM | [7] > 100 µM | [8] 91.2 µM | [51] > 100 µM | [9] > 100 µM | [10] > 100 µM | [11] > 100 µM | [12] 60.7 µM | [13] > 100 µM | [14] > 100 µM | [15] > 100 µM | [16] > 100 µM | [17] > 100 µM | [18] > 100 µM | [19] > 100 µM | [20] > 100 µM | [52] > 100 µM | [22] 52.2 µM | [23] 28.8 µM | [24] > 100 µM | [54] > 100 µM | [25] > 100 µM | [26] > 100 µM | [27] > 100 µM | [28] > 100 µM | [29] > 100 µM | [30] > 100 µM | [58] > 100 µM | [31] 21.8 µM | [32] > 100 µM | [55] 63 µM | [36] > 100 µM | [37] > 100 µM | [38] > 100 µM | [39] > 100 µM | [40] > 100 µM | [41] > 100 µM | [42] > 100 µM | [56] > 100 µM | [44] > 100 µM | [45] > 100 µM | [46] 45.4 µM | [47] > 100 µM | [48] > 100 µM | [49] > 100 µM
